pKd: −log10 of the molar value. Blank lines part the entries; values can stand above or below the compound they belong to. Square brackets hold non-standard residues; d marks the D form. Ends that are not written are not given here. Peptide text beside a SMILES is read from it.
Legend:
[1] = cited from earlier work
[2] = test system: fibroblasts (NIH 3T3, mouse); assay: Fibroblast adhesion and proliferation on hydrogel by optical microscopy; format: cell-based; details: fresh media provided; assay stopped after 1 month
Procedure: These cells were used as a model system because of their importance in connective tissue development and their easily distinguished morphology when adhered to the hydrogel scaffold. Qualitative studies were performed in which cells were added to either polystyrene control wells or wells containing a uniform slab (3 mm thick) of MAX1-hydrogel. Cell adhesion was qualitatively monitored via direct observation of cell spreading after four hours from the time of initial cell seeding by optical microscopy (a quantitative cell attachment assay is described below, see also Akiyama, S. K. Functional analysis of cell adhesion: Quantitation of cell-matrix attachment, 2002; Vol. 69, pp 281-296). Non-adhered fibroblasts have rounded morphologies and adhered fibroblasts have spread morphologies Proliferation was measured both qualitatively by optical microscopy and quantitatively by a ^3H thymidine-based cell seeding assay as described below. Hydrogels were prepared in 48 well tissue culture plates by either one of the following protocols. Protocol 1: MAX1 was dissolved in water (resulting in an acidic solution, pH˜5) and an equal volume of buffer (pH 9, 250 mM borate, 20 mM NaCl) was added at room temperature to induce folding/self-assembly resulting in a 2 wt % hydrogel. The resulting gel was bathed in DMEM containing 10% calf serum and 10 mg/mL gentamicin. […]

[3] = Temperature dependent CD of peptide folding and self-assembly (Tgel), with rheology of thermal reversibility; format: physicochemical; details: for Tgel, temperature at which folding and consequent self-assembly is triggered: 150 μM peptide, 125 mM Borate, 10 mM NaCl, pH 9, CD [θ]218; for reversibility of thermally induced hydrogelation: CD 150 μM and rheology 2 wt %, heating/cooling cycles 5-80° C.
Text: At low temperature MAX1 is unfolded (and unassembled). At high temperature MAX1 folds into beta-sheet (and consequently self-assembles into a hydrogel). […] The relative hydrophobicity is MAX1>MAX2>MAX3 due to the isostructural but less hydrophobic substitutions of threonine for valine at the underlined positions. The most hydrophobic folds at the lowest temperature while the least hydrophobic folds at the highest temperature. This is a direct manifestations of the molecular parameter manipulations described in FIG. 2. Also shown are the calculated free energy of transfer of each corresponding unfolded peptide having an overall +8 charge state from octanol into water at 25° C. MAX1, the most hydrophobic has the highest free energy of transfer equal to 7.60 kcal/mol. MAX2 has a calculated transfer free energy of 6.88 kcal/mol, while the least hydrophobic MAX3 has the lowest energy of transfer of 6.45 kcal/mol.
This allows the characteristics of the hydrogels of the invention to be varied by adjusting these parameters. […] It is well known that water is better able to solvate hydrophobic groups at low temperatures. This phenomenon has been used to describe the cold denaturation of proteins where some proteins unfold at low temperatures, exposing their hydrophobic interiors to aqueous solvent. A 150 μM aqueous solution of MAX1 unfolds when cooled below room temperature. The CD spectrum at 5° C. is consistent with random coil conformation, FIG. 9A. However, warming the solution to 40° C. results in a spectra consistent with β-sheet structure. […] In fact, previous studies involving the pH induced folding and self-assembly of MAX1 were performed at 20° C. At this temperature, folding and self-assembly are slow enough to be conveniently monitored. At higher temperatures, folding and self-assembly leading to hydrogelation is fast (instantaneous to seconds depending on concentration). If the formation of hydrophobic interactions affects the folding and self-assembly process, then altering the hydrophobic content of MAX1 should affect the temperature at which folding is triggered. […] MAX2 is identical to MAX1 except that one valine residue has been replaced with the isostructural, but less hydrophobic residue, threonine. In MAX3, two valines are replaced with threonine residues. The resulting peptides vary in their hydrophobicity as evident by comparing calculated free energies of transfer from octanol into water, FIG. 9. […] Thus, the formation of hydrophobic contacts influences folding and self-assembly. […] Thus, the characteristics of the hydrogels of the invention can be varied by adjusting the amino acid residues of the peptides used to form the hydrogels to increase or decrease the hydrophobicity of the amino acid residues used.
There are reports of large polymers that are thermally responsive. The present invention provides the first system that employs temperature triggered folding to induce self-assembly. […] Heating the solution to 80° C. results in a spectra consistent with β-sheet structure. […] The temperatures used in both CD and rheology bracket the temperature (Tgel=60° C., FIG. 9) at which folding and consequent self-assembly is triggered. […] For example, free flowing peptide solutions could be prepared at room temperature and administered in vivo where the temperature of the body could induce gelation. Some Poly-N-isopropylacrylamide polymers have been engineered have been engineered to undergo such transitions ultimately affording extracellular-like scaffolds for tissue regeneration. The above studies support the idea that the formation of hydrophobic interactions are important. MAX1-3 all contain valines and threonines at hydrogen bonded positions. At these positions, their side chains prefer to adopt a trans rotamer. […]

[4] = Folding (CD) and hydrogelation of sequence variants under folding conditions; format: physicochemical; details: for conformation by CD under folding conditions: 150 μM, pH 9.0, 125 mM Borate, 10 mM NaCl
Text: In some embodiments of the invention, various functionalities (e.g., cell adhesion epitopes, receptor agonists, receptor antagonists, ligands, small molecules, etc) may be incorporated into the hairpin hydrogel scaffold. One way to accomplish this would be to functionalize one or more amino acid side chains of the peptide. […] In some embodiments, the moieties to be incorporated at a particular side chain may be much larger (e.g. RGD-based motifs) and may contain charged residues. MAX5 (VKVKVKVKV^DPPTKVKEKVKV-NH2) was prepared to investigate the possibility of incorporating a charged residue on the hydrophobic face of MAX1. The sequence contains a glutamic acid residue at position 16 which is negatively charged at basic pH where MAX1 normally folds and assembles. […] However, alterations to the hydrophilic face of MAX1 are well tolerated. Sequences in which one or two lysine residues are replaced with other residues such as cysteine, serine, and glutamic acid are capable of folding and self-assembly into rigid hydrogels (data not shown).
The peptides described above contain identical turn sequences, namely (-V^DPPT-). This sequence has a strong propensity to form a type II′ turn and therefore helps to drive intramolecular folding. Since intramolecular folding must occur prior to self-assembly, alterations to this turn sequence that inhibit turn structure formation can be used to modulate intramolecular folding and self-assembly leading to hydrogelation. MAX9 was prepared to probe the importance of the turn region (VKVKVKVKV^LPPTKVKVKVKV-NH2). MAX9 is identical to MAX1 with the exception that the ^DPro at position ten has been replaced with ^LPro. Unlike the dipeptide ^DPro^LPro contained within MAX1 that favors type II′ turn formation, the ^LPro^LPro motif of MAX9 favors an open conformation. The two strands emanating from an open ^LPro^LPro conformation would be projected in opposite directions. Thus, intramolecular folding resulting in β-hairpin formation would be highly unfavored. […]

Compound: NC(=O)CN1CCN(CC(N)=O)CCN(CC(N)=O)CCN(CC(N)=O)CC1 [DOTAM]
pKd ([1]; read-out: Kd for calcium): 7.54

Compound: CC(C)[C@H](N)C(=O)N[C@@H](CCCCN)C(=O)N[C@H](C(=O)N[C@@H](CCCCN)C(=O)N[C@H](C(=O)N[C@@H](CCCCN)C(=O)N[C@H](C(=O)N[C@@H](CCCCN)C(=O)N[C@H](C(=O)N1CCC[C@@H]1C(=O)N1CCC[C@H]1C(=O)N[C@H](C(=O)N[C@@H](CCCCN)C(=O)N[C@H](C(=O)N[C@@H](CCCCN)C(=O)N[C@H](C(=O)N[C@@H](CCCCN)C(=O)N[C@H](C(=O)N[C@@H](CCCCN)C(=O)N[C@H](C(N)=O)C(C)C)C(C)C)C(C)C)C(C)C)[C@@H](C)O)C(C)C)C(C)C)C(C)C)C(C)C [MAX1, VKVKVKVK V^DPPT KVKVKVKV-NH2] (H-VKVKVKVKV[dP]PTKVKVKVKV-NH2)
time cells remain viable on gel [2]: ≥ 1 month

Compound: -DRKADGYIDFEE-
Kd for Ca(II) ([1]; linear peptide, calcium binding loop of Troponin C): low mM

Tgel, temperature at which folding and consequent self-assembly is triggered [3]: 20 °C
Compound: KVKVKVKV K^DPPS VKVKVKVK-NH2 [MAX4]

Tgel, temperature at which folding and consequent self-assembly is triggered [3]: 60 °C
reversibility of thermally induced hydrogelation [3]: thermally reversible
Compound: VKVKVKTK V^DPPT KVKTKVKV-NH2 [MAX3]

Compound: VKVKVKVK VPPT KVKVKVKV-NH2 (VKVKVKVKVPPTKVKVKVKV-NH2) [MAX9]
conformation by CD under folding conditions [4]: only random coil
hydrogelation ([4]; folding conditions, 2 wt % solutions): failed to undergo hydrogelation

conformation by CD under folding conditions [4]: random coil
Compound: VKVKVKVK V^DPPT KVKEKVKV-NH2 [MAX5]

reversibility of thermally induced hydrogelation [3]: not reversible
temperature above which peptide folds/self-assembles ([3]; pH 9 (10 mM NaCl)): greater than 45 °C
temperature below which peptide is unfolded ([3]; pH 9 (10 mM NaCl)): below 40 °C
Compound: VKVKVKVK V^DPPT KVKTKVKV-NH2 [MAX2]

From US7858585B2, “Hydrogels and uses thereof” (University of Delaware, priority 2005, dated 2010)
